# Reference: patent US12503438B2, “Compounds for the treatment of kinase-dependent disorders” (Exelixis, Inc., priority 2019, dated 2025)
# Assays:
# KDR = KDR (Homo sapiens, UniProt P35968); assay: KDR autophosphorylation ELISA in HUVEC cells; assay type: cell-based; set-up: endogenous in cells; host or cells: HUVEC (Lonza #C2519A); conditions: cellular activity, VEGF165-stimulated, phospho-KDR ELISA
# Outline: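 Read-out: phospho-KDR ELISA on cell lysates, quantified against a phospho-KDR standard, normalised to VEGF-stimulated DMSO (100%) and unstimulated (0%) wells, IC50 by 4-parameter fit. Cells were 24 h serum-starved HUVEC given compound for 1 h, then 100 ng/mL VEGF165 for 5 min.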
# Met = Met (Homo sapiens, UniProt P08581); assay: Met autophosphorylation ELISA in PC-3 cells; assay type: cell-based; set-up: endogenous in cells; host or cells: PC-3 prostate cancer cells (ATCC #CRL-1435); conditions: cellular activity, HGF-stimulated, phospho-Met ELISA, read-out: c-Met IC50
# Chain of Met (P08581 25-1390): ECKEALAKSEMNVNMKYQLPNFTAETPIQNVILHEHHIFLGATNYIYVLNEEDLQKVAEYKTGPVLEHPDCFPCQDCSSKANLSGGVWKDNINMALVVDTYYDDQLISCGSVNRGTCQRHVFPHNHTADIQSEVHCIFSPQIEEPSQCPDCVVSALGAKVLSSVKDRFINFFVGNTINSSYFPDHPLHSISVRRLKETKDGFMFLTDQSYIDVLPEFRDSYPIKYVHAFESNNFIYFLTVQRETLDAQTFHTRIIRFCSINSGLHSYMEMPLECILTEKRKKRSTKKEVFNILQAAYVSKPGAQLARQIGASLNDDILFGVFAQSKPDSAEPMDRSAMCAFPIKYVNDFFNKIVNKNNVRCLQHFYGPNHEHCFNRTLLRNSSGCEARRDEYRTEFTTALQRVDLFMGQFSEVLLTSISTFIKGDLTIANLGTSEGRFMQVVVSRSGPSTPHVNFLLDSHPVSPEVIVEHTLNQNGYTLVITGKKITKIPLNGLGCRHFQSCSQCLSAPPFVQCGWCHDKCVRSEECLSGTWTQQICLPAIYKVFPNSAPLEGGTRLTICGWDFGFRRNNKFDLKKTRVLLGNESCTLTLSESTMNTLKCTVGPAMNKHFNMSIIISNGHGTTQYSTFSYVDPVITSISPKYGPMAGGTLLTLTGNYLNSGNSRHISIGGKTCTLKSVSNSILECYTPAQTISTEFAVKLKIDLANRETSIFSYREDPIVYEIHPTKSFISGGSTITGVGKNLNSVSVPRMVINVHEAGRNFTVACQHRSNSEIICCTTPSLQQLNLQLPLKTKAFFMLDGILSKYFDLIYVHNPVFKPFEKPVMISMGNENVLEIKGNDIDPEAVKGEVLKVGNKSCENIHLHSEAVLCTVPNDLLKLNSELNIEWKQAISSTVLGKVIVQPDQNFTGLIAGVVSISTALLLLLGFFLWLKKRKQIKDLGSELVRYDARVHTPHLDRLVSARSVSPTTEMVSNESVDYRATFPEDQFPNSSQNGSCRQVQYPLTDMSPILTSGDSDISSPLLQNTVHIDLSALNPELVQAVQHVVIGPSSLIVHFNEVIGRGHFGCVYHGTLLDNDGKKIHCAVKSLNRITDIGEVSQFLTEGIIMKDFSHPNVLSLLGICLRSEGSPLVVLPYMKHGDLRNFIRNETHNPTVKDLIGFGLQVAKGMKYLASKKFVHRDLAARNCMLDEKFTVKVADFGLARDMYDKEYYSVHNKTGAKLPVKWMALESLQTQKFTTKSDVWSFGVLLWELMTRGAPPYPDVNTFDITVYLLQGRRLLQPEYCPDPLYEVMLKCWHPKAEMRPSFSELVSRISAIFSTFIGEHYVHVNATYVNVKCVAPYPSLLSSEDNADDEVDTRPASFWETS
# Outline: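 PC-3 cells serum-starved 3 h, treated 1 h with 8-point compound series (0.3% DMSO), then stimulated with 100 ng/mL human HGF for 10 min. Lysate phospho-Met (panTyr) measured by sandwich ELISA; IC50 from 4-parameter logistic fit against DMSO and reference-inhibitor controls.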
# Human Axl = molecular target: T1, Human Axl (Homo sapiens, UniProt P30530, Q764R); assay: Human AXL kinase assay (33P-phosphoryl transfer radiometric, KinaseProfiler); conditions: biochemical activity; 10 μM ATP
# T1 construct: Human Axl (residues H473-A894 with Q764R, 161 nM); purchased Eurofins Pharma Discovery Services UK Limited (KinaseProfiler service)
# T1 sequence (P30530 473-894 Q764R): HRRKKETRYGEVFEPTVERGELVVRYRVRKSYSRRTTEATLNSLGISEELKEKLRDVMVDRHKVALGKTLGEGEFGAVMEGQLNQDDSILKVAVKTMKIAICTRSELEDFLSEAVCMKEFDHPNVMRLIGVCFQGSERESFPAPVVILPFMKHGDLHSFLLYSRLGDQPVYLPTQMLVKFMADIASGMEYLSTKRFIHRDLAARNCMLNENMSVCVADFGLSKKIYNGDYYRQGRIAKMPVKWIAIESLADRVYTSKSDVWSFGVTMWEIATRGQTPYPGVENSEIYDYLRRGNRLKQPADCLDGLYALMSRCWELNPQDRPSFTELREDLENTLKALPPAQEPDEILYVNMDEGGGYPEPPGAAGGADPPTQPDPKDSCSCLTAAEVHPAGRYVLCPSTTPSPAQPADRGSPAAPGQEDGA
# Experimental: Kinase activity and compound inhibition were investigated using the ^33P-Phosphoryl transfer radiometric kinase assay, performed using the KinaseProfiler™ service of Eurofins Pharma Discovery Services UK Limited. Dose-response experiments were performed using nine compound concentrations in a 96-well microtiter plate. For each assay, all compounds were prepared to a 50× final assay concentration (50 μM) in 100% DMSO, then diluted in a half-log series, with the final top concentration at 1 μM. This working stock of the compound was added to the assay well as the first component in the reaction, followed by the remaining components as detailed in the following assay protocols below. The positive control wells (100% kinase activity) contain all components of the reaction including 2% DMSO (control for solvent effects), except the compound of interest. Blank wells contain all components of the reaction, with the reference inhibitor, staurosporine. This reference compound was used to abolish kinase activity and generated the 0% kinase activity base-line. IC50 values were calculated by nonlinear regression analysis using the sigmoidal dose-response (variable slope) curve fit on XLFit version 5.3 (ID Business Solutions).
# Human Axl (residues H473-A894 with Q764R, 161 nM) was incubated with 8 mM MOPS pH 7.0, 0.2 mM EDTA, 250 μM KKSRGDYMTMQIG, 10 mM magnesium acetate, and 10 μM [y-^33P-ATP]. The reaction was initiated by the addition of the Mg/ATP mix. After incubation for 40 minutes at room temperature, the reaction was stopped by the addition of phosphoric acid to a concentration of 0.5%. A reaction aliquot of 10 μL was then spotted onto a P30 filtermat and washed four times for 4 minutes in 0.425% phosphoric acid and once in methanol prior to drying and scintillation counting. Incorporated ^33P was measured using the Wallac Microbeta scintillation counter (Perkin Elmer).
# Chain of KDR (P35968 20-1356): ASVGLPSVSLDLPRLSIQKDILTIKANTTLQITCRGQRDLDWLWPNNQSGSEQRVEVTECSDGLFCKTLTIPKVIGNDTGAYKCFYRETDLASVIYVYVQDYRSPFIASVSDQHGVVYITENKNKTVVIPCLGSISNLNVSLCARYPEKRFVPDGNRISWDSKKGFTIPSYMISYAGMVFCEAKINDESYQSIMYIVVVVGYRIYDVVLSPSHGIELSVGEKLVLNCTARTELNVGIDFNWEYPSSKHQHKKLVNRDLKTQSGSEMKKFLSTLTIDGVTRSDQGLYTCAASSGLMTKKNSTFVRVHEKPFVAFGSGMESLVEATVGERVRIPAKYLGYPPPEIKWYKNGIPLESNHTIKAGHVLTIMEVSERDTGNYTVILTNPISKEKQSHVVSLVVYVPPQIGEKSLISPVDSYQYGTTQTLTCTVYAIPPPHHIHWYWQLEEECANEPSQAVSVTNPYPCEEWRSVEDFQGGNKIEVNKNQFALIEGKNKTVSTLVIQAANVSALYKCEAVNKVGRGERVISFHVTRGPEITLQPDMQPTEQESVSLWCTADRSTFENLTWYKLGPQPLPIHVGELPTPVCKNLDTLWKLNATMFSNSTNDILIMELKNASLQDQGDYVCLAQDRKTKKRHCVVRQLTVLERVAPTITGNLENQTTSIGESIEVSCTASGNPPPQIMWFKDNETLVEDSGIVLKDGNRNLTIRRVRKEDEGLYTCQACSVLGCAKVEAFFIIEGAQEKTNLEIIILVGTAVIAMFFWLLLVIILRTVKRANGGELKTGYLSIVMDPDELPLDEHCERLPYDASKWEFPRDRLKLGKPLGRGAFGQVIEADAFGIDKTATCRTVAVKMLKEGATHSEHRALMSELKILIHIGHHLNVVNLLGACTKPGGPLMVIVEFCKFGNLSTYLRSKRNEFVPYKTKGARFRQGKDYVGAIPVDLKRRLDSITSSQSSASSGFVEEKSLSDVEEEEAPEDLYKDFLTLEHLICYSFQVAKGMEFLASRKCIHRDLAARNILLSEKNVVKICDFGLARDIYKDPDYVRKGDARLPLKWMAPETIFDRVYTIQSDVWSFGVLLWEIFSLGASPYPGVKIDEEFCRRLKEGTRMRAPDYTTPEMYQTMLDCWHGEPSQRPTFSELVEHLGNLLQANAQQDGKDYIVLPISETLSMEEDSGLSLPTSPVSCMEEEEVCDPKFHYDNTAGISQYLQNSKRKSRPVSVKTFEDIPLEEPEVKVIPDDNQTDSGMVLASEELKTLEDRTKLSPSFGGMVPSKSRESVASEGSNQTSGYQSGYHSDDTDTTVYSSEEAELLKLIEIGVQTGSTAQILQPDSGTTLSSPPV
SMILES,IC50 (KDR) [nM],IC50 (Met) [nM],IC50 (Human Axl) [nM]
"COCCn1cc(-c2ccc3c(Oc4ccc(NC(=O)C5(C(=O)Nc6ccc(F)cc6)CC5)cc4)ccnc3c2)cn1 [Compound 10, 1-N′-(4-Fluorophenyl)-1-N-[4-[7-[1-(2-methoxyethyl)pyrazol-4-yl]quinolin-4-yl]oxyphenyl]cyclopropane-1,1-dicarboxamide]",10 to 100,10 to 100,≤ 10
"CCn1cc(-c2ccc3c(Oc4ccc(NC(=O)C5(C(=O)Nc6ccc(F)cc6)CC5)cc4)ccnc3c2)cn1 [Compound 20, 1-N-[4-[7-(1-Ethylpyrazol-4-yl)quinolin-4-yl]oxyphenyl]-1-N′-(4-fluorophenyl)cyclopropane-1,1-dicarboxamide]",≤ 10,10 to 100,≤ 10
"CC(C)(C)n1cc(-c2ccc3c(Oc4ccc(NC(=O)C5(C(=O)Nc6ccc(F)cc6)CC5)cc4)ccnc3c2)cn1 [Compound 23, 1-N-[4-[7-(1-tert-Butylpyrazol-4-yl)quinolin-4-yl]oxyphenyl]-1-N′-(4-fluorophenyl)cyclopropane-1,1-dicarboxamide]",10 to 100,10 to 100,10 to 100
"Cn1cc(-c2ccc3c(Oc4ccc(NC(=O)C5(C(=O)Nc6ccc(F)cc6)CC5)cc4)ccnc3c2)cn1 [Compound 11, 1-N′-(4-Fluorophenyl)-1-N-[4-[7-(1-methylpyrazol-4-yl)quinolin-4-yl]oxyphenyl]cyclopropane-1,1-dicarboxamide]",≤ 10,≤ 10,≤ 10
"CN(C(=O)C1(C(=O)Nc2ccc(Oc3ccnc4cc(-c5cnn(C)c5)ccc34)cc2)CC1)c1ccc(F)cc1 [Compound 82A, 1-N′-(4-Fluorophenyl)-1-N′-methyl-1-N-[4-[7-(1-methylpyrazol-4-yl)quinolin-4-yl]oxyphenyl]cyclopropane-1,1-dicarboxamide]",> 300,> 300,100 to 1000
"O=C(Nc1ccc(F)cc1)C1(C(=O)Nc2ccc(Oc3ccnc4cc(-c5cnn(CC(F)F)c5)ccc34)cc2)CC1 [Compound 15, 1-N-[4-[7-[1-(2,2-Difluoroethyl)pyrazol-4-yl]quinolin-4-yl]oxyphenyl]-1-N′-(4-fluorophenyl)cyclopropane-1,1-dicarboxamide]",10 to 100,10 to 100,≤ 10

# The remaining lines, values ahead:
IC50 (KDR) [nM],IC50 (Met) [nM],IC50 (Human Axl) [nM],SMILES
≤ 10,10 to 100,10 to 100,"O=C(Nc1ccc(F)cc1)C1(C(=O)Nc2ccc(Oc3ccnc4cc(-c5cnn(CC(F)(F)F)c5)ccc34)cc2)CC1 [Compound 16, 1-N′-(4-Fluorophenyl)-1-N-[4-[7-[1-(2,2,2-trifluoroethyl)pyrazol-4-yl]quinolin-4-yl]oxyphenyl]cyclopropane-1,1-dicarboxamide]"
10 to 100,≤ 10,≤ 10,"O=C(Nc1ccc(F)cc1)C1(C(=O)Nc2ccc(Oc3ccnc4cc(-c5cnn(CCF)c5)ccc34)cc2)CC1 [Compound 14, 1-N-[4-[7-[1-(2-Fluoroethyl)pyrazol-4-yl]quinolin-4-yl]oxyphenyl]-1-N′-(4-fluorophenyl)cyclopropane-1,1-dicarboxamide]"
≤ 10,10 to 100,10 to 100,"O=C(Nc1ccc(F)cc1)C1(C(=O)Nc2ccc(Oc3ccnc4cc(-c5cnn(C(F)F)c5)ccc34)cc2)CC1 [Compound 13, 1-N-[4-[7-[1-(Difluoromethyl)pyrazol-4-yl]quinolin-4-yl]oxyphenyl]-1-N′-(4-fluorophenyl)cyclopropane-1,1-dicarboxamide]"
10 to 100,10 to 100,10 to 100,"CNC(=O)c1cc2c(Oc3ccc(NC(=O)C4(C(=O)Nc5ccc(F)cc5)CC4)cc3)ccnc2cc1-c1cnn(C)c1 [Compound 77, 1-N′-(4-Fluorophenyl)-1-N-[4-[6-(methylcarbamoyl)-7-(1-methylpyrazol-4-yl)quinolin-4-yl]oxyphenyl]cyclopropane-1,1-dicarboxamide]"
